Data published in patent US20240423981A1, “TREATMENT OF HCM WITH PYRIMIDINEDIONE COMPOUNDS” (MyoKardia, Inc., priority 2017, published 2024).

How the values were obtained:
[1] = tested on: subjects with symptomatic HCM and LVOT obstruction; assay: Phase 2 open-label pilot study Pioneer-HCM-B (Cohort B); type: in vivo, human
Method: This trial was similar to the trial described in Example 3, but will have several important differences. For example, subjects in the Phase 2-B trial will not be required to discontinue their β-blocker therapy, and the dose of Compound 1 will be reduced to 2 to 5 mg.
The following results were obtained generally following the procedures described in Example 3 and Example 5.

[2] = biological target: smooth muscle myosin (Homo sapiens, UniProt P35749); assay: Biochemical activity against smooth muscle myosin
Sequence of smooth muscle myosin (P35749 whole entry): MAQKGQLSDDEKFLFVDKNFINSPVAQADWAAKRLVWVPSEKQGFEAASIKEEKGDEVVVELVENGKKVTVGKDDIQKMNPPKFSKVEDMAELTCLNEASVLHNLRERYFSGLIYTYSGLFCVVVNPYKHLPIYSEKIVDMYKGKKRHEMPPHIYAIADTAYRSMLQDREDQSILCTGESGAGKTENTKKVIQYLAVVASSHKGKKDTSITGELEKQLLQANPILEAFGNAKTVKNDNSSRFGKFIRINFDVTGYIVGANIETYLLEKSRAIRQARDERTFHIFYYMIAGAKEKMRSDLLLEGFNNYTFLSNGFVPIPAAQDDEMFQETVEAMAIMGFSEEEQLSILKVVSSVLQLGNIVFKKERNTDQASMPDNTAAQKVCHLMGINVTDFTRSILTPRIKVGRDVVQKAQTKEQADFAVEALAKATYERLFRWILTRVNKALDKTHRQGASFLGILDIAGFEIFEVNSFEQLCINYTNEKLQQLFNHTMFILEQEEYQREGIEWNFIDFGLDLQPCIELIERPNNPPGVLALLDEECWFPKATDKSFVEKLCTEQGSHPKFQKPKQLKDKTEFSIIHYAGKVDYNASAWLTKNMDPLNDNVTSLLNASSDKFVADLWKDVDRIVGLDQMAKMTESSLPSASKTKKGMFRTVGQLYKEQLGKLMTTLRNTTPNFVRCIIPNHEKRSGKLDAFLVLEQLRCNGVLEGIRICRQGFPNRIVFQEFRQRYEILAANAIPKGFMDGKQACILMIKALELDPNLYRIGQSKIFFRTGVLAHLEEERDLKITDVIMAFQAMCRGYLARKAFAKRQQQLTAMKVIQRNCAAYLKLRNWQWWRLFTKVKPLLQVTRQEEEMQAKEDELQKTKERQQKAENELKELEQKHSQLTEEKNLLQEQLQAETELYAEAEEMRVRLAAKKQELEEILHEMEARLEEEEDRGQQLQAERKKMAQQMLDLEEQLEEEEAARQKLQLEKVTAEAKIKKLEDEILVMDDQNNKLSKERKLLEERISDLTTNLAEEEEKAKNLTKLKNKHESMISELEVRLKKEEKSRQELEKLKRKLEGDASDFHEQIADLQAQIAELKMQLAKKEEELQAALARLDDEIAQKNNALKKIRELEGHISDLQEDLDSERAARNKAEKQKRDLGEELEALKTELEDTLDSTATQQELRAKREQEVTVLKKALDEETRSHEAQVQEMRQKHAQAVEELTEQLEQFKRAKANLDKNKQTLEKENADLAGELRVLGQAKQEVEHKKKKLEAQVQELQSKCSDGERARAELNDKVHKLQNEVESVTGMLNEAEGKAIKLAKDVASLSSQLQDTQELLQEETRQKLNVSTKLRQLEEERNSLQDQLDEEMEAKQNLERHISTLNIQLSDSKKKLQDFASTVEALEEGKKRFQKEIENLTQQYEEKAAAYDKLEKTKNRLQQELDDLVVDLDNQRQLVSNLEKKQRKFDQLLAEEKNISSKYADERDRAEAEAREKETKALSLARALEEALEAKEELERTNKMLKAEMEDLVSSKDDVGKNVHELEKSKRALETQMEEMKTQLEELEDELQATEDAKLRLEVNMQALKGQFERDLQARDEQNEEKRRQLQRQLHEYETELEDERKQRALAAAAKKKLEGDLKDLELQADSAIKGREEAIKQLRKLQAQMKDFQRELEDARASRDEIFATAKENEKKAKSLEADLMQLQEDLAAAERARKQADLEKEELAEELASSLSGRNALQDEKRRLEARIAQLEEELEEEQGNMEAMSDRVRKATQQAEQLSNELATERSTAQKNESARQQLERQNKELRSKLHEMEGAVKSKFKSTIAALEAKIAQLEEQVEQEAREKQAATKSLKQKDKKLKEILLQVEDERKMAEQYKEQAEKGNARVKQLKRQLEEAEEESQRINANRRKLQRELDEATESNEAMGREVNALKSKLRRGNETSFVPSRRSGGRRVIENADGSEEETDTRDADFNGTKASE
Sequence of smooth muscle myosin (P60660 whole entry partner): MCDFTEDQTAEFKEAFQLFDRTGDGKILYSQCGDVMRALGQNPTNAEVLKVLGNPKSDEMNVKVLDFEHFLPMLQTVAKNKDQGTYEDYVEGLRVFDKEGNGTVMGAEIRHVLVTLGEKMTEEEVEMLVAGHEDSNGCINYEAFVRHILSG
Sequence of smooth muscle myosin (P24844 whole entry partner): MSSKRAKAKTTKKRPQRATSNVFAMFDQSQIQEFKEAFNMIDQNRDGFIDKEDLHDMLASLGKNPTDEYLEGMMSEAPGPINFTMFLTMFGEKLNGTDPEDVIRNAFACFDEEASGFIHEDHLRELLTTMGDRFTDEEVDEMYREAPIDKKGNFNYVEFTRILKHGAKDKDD

[3] = 2 mg/day for 4 weeks, preliminary
[4] = Cohort B (2-5 mg daily doses), mean ± SD
[5] = Cohort B, baseline to Week 12, n 10

SMILES: CC(C)n1c(=O)cc(N[C@@H](C)c2ccccc2)[nH]c1=O [Compound 1, (S)-3-Isopropyl-6-((1-phenylethyl)amino) pyrimidine-2, 4(1H,3H)-dione]
- LV filling pressure and diastolic peak mitral annular velocity ([1]; 2 mg/day for 4 weeks, absence of a change in afterload): beneficial effects on LV filling pressure (↓E/e′ and NTpro-BNP) and in diastolic peak mitral annular velocity (e′)
- LV systolic function at rest and immediately post-exercise [1, 3]: not affected
- effect on LVOT rest and exercise gradients [1, 3]: consistent effect on LVOT rest and exercise gradients
- NYHA functional class ([1]; 12 weeks of Compound 1, 4 weeks of washout (FIG. 21)): improvement in NYHA functional class in individuals after 12 weeks and the reversal of improvement after 4 weeks of washout
- patients with >1.5 mL/kg/min improvement in pVO2 ([1]; Cohort B): *5 of 10 patients had >1.5 mL/kg/mm improvement in pVO2
- patients with improved NYHA Class ([1]; Cohort B): 8 of 10 and **Improved NYHA Class in 9 out of 10 patients
- Resting Gradient Week 4 ([1]; Cohort B (2 mg/day), preliminary, mean ± SD, N 5, baseline 84 ± 76 (6)): 59 ± 61 mm Hg
- Septal e′ Week 4 ([1]; Cohort B (2 mg/day), preliminary, mean ± SD, N 6, baseline 3.9 ± 1.1 (6)): 4.5 ± 1.4
- Mean e′ Week 4 ([1]; Cohort B (2 mg/day), preliminary, mean ± SD, N 6, baseline 4.7 ± 1.0 (6)): 5.7 ± 1.3
- Lateral e′ Week 4 ([1]; Cohort B (2 mg/day), preliminary, mean ± SD, N 6, baseline 5.4 ± 1.0 (6)): 7.0 ± 1.2
- E/e′ Week 4 ([1]; Cohort B (2 mg/day), preliminary, mean ± SD, N 6, baseline 14.0 ± 3.4 (6)): 10.7 ± 3.5
- Post-exercise Gradient Week 4 ([1]; Cohort B (2 mg/day), preliminary, mean ± SD, N 6, baseline 70 ± 45 (6)): 93 ± 56 mm Hg
- Resting LVEF Week 4 ([1]; Cohort B (2 mg/day), preliminary, mean ± SD, N 6, baseline 71 ± 4 (6)): 73 ± 6%
- Stroke Volume Week 4 ([1]; Cohort B (2 mg/day), preliminary, mean ± SD, N 6, baseline 73.3 ± 6.5 (6)): 77.8 ± 14.3 mL
- Post-exercise LVEF Week 4 ([1]; Cohort B (2 mg/day), preliminary, mean ± SD, N 6, baseline 78 ± 9 (5)): 76 ± 3%
- NT-pro BNP Week 4 ([1]; Cohort B (2 mg/day), preliminary, mean ± SD, N 7, baseline 2162 ± 3601 (8)): 1258 ± 1789 pg/mL
- improvement in peak VO2 in 4 subjects ([1]; Cohort B (2-5 mg daily doses)): ≥ 2.9 mL/min/kg
- Dyspnea numerical rating (signed change) [1, 4]: −3.0 ± 2.8
- NYHA Class (signed change) [1, 4]: −1.0 ± 0.5
- Peak VO2 (signed change) [1, 4]: +1.67 ± 2.3 mL/kg/min
- Post-exercise peak LVOT gradient (signed change) [1, 4]: −25.0 ± 28.7 mmHg
- Resting LVEF (signed change) [1, 4]: −5.5 ± 6.0%
- Resting LVOT gradient (signed change) [1, 4]: −48.5 ± 48.0 mmHg
- NT-proBNP Delta ([1]; Cohort B, baseline to Week 12, n 9): −1195 ± 2770
- Dyspnea score Delta [1, 5]: −3.0 ± 2.8
- E/e′ Delta [1, 5]: −1.3 ± 4.6
- LA Vol (index) Delta [1, 5]: −6 ± 12 mL/m^2
- LVEDV Delta [1, 5]: 6 ± 18
- Lateral e′ Delta [1, 5]: 0.3 ± 2.2 cm/s
- Dyspnea score Week 12 ([1]; Cohort B, baseline 4.0 ± 2.6, n 10): 1.0 ± 0.7
- Lateral e′ Week 12 ([1]; Cohort B, baseline 5.9 ± 1.0, n 10): 6.1 ± 2.1 cm/s
- E/e′ Week 12 ([1]; Cohort B, baseline 13.9 ± 3.5, n 10): 12.6 ± 4.1
- LA Vol (index) Week 12 ([1]; Cohort B, baseline 41 ± 20, n 10): 35 ± 12 mL/m^2
- LVEDV Week 12 ([1]; Cohort B, baseline 95 ± 15, n 10): 101 ± 25
- NT-proBNP Week 12 ([1]; Cohort B, baseline 1834 ± 3209, n 9): 826 ± 1063
- peak VO2 ([1]; by week 12 (FIG. 23)): improvement in peak VO2 by week 12
- dyspnea ([1]; throughout the trial, improvement reversed after 4 weeks of washout (FIG. 22)): rapid improvement in peak in dyspnea
- activity against smooth muscle myosin [2]: biochemically inactive
